Data set [1] concerns jojoba acyl-CoA reductase. Description: Acyl (substrate) specificity of the reductase, microsomal membrane preparation. The note with it: substrates compared at 10 uM, 0.5M NaCl. It is filed as biochemical. From the text: (§1) 3. […] NaCl concentration in these assays is 0.5M.
In data set [2] the target is T1, jojoba acyl-CoA reductase (Simmondsia chinensis, UniProt Q9XGY7).
T1 sequence (Q9XGY7 1-493): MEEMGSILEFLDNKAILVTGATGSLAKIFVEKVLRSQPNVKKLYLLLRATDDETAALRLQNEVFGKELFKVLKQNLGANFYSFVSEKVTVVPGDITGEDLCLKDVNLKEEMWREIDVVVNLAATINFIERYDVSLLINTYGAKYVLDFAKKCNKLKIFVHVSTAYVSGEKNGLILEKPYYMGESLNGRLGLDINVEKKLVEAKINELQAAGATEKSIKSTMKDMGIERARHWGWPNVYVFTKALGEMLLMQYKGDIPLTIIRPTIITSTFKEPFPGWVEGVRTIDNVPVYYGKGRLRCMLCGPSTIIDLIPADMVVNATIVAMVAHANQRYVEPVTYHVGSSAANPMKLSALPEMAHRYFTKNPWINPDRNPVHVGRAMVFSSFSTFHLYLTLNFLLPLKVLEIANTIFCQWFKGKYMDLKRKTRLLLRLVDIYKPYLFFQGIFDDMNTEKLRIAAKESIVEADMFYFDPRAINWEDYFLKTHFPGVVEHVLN
Description: Competitive inhibition experiment, unlabelled palmitoyl-CoA vs [1-14C]tetracosenoyl-CoA. In kind it is biochemical. The arrangement: The microsomal membrane preparation described above is used for further characterization of the reductase enzyme; from tissue; host or cells: developing jojoba embryos (seed coats removed), microsomal membrane preparation. The settings on record: unlabelled inhibitor 0-30 μM; [1-14C]tetracosenoyl-CoA 20 μM; read-out: concentration giving 50% inhibition of reductase activity towards tetracosenoyl-CoA.

Data set [3] deals with T1, jojoba acyl-CoA reductase. Description: Acyl (substrate) specificity of the reductase, microsomal membrane preparation. In kind it is biochemical. Further details: The microsomal membrane preparation described above is used for further characterization of the reductase enzyme; from tissue; host or cells: developing jojoba embryos (seed coats removed), microsomal membrane preparation. The note with it: acyl-CoA thioester as substrate at 10 μM; 0.5M NaCl; pH 7.5.
Text: as §1

Data set [4] deals with T1, jojoba acyl-CoA reductase. The settings on record: for inhibitory effect on reductase activity (in words): known reductase/synthase inhibitors and sulphydryl blocking agents. On the procedure:
Reductase activity in a microsomal membrane preparation is measured by incubation of 20 μM [1-^14 C]acyl-CoA (usually tetracosenoyl-CoA, sp. act. 2-5 Ci/mol) with the sample to be assayed and 2 mM NADPH, in a total volume of 0.25 ml. The incubation mixture also contains 10% w/v glycerol, 1 mM DTT, and is buffered with 50 mM HEPES (4-[2-hydroxyethyl]-1-piperazineethane-sulfonic acid) (HEPES, here and as refered to hereafter is added from a 1M stock solution adjusted to pH 7.5) .
The assay is started by the addition of acyl-CoA substrate and the incubation is carried out at 30° C. for one hour. The assay is terminated by placing the assay tube on ice and immediately adding 0.25 ml isopropanol:acetic acid (5:1 v/v) . Unlabeled wax esters (0.1 mg) and oleyl alcohol (0.1 mg) are added as carriers. The [^14 C] lipids are extracted by the scaled-down protocol of Hara and Radin (Anal. Biochem. (1978) 90:420). Six ml of hexane/isopropanol (3:2, v/v) is added to the terminated assay. The sample is vortexed, 2 ml of aqueous sodium sulphate solution (5.5% w/v) is added, and the sample is again vortexed.
The microsomal membrane preparation described above is used for further characterization of the reductase enzyme. […] Characterization experiments were conducted at pH 7.5, which is close to the presumed physiological pH of the cytoplasm.
1. Salt Effects: A variety of salts were examined for their effect on reductase activity using a standard concentration of 0.5M for monobasic salts. Salts with divalent cations or anions were examined at 0.167M (to give the same ionic strength as the 0.5M monobasic salts) and also at 0.5M.
4. Reductase Inhibitor Assays: Several known inhibitors of other types of reductase proteins were tested for their effect on the jojoba acyl-CoA reductase activity.
Sulphydryl blocking agents were also screened for their effect on reductase activity.

The target in the next data set is T2, jojoba acyl reductase (Simmondsia chinensis, UniProt Q9XGY7).
T2 construct: The microsomal membrane preparation described above is used for further characterization of the reductase enzyme; from tissue; host or cells: developing jojoba embryos (seed coats removed), microsomal membrane preparation
T2 sequence (Q9XGY7 1-493): T1 sequence (Q9XGY7 1-493)
Nature of the data set: Detergent inhibition of reductase activity and its reversibility. In kind it is biochemical. From the text:
Often, detergents which are used to solubilize membrane proteins are found to inhibit the enzymatic activity of a desired protein. […] However, as apparent detergent inhibition of reductase activity may be due to some effect other than irreversible inhibition of the enzyme, the reversibility of inhibition by CHAPS was examined.
A protocol for solubilizing jojoba acyl reductase activity utilizing the detergent CHAPS has been devised which yields approximately 85% of the reductase activity from the microsomal membrane preparation. This method is discussed in detail in Example 2. Similarly, studies of reversibility of apparent reductase inhibition by other detergents may be conducted to identify other useful detergents for solubilization of acyl reductase activity for jojoba or other candidate reductases.

Data set [5] concerns jojoba acyl-CoA reductase. The note with it: previously shown, Pollard et al.; cited from earlier work.
[6] abbreviates: 0.5M for monobasic salts, divalent salts at 0.167M and 0.5M.
Setting [7] is: millimolar concentrations (given for CoA and NADP+).

Where two headings read alike, the source gives them in different places.

As for `CCCCCCCCCCCCCCCC(=O)SCCNC(=O)CCNC(=O)[C@H](O)C(C)(C)COP(=O)(O)OP(=O)(O)OC[C@H]1O[C@@H](n2cnc3c(N)ncnc32)[C@H](O)[C@@H]1OP(=O)(O)O` [16:0 Acyl-CoA, palmitoyl-CoA], the “activity as substrate of the reductase (in words)” value in data set [1] is listed as “barely above background”. In data set [2], the IC50 turned out to be 5 µM. For the compound `CCCCCCCCCCCCCCCCCC(=O)SCCNC(=O)CCNC(=O)[C@H](O)C(C)(C)COP(=O)(O)OP(=O)(O)OC[C@H]1O[C@@H](n2cnc3c(N)ncnc32)[C@H](O)[C@@H]1OP(=O)(O)O` [18:0 Acyl-CoA], the “Reductase Activity, Acyl-CoA (10 μM)” value in data set [3] was 1.4 pmol/min/µL.

For the compound `[Ca+2].[Cl-].[Cl-]` [CaCl2], in data set [4] (setting [6]), the “salt effect on reductase activity (in words)” value is listed as “stimulate reductase activity”.

`NC(=O)c1ccc[n+]([C@@H]2O[C@H](COP(=O)([O-])OP(=O)(O)OC[C@H]3O[C@@H](n4cnc5c(N)ncnc54)[C@H](OP(=O)(O)O)[C@@H]3O)[C@@H](O)[C@H]2O)c1` [NADP+]: the “effect on reductase activity (in words)” value in data set [4] (setting [7]) is listed as “significant inhibition”. As to `NC(=O)CI` [iodoacetamide], the “inhibitory effect on reductase activity (in words)” value in data set [4] is “no effect”. In the case of `O=C(O)CN(CCN(CC(=O)O)CC(=O)O)CC(=O)O` [ethylenediaminetetraacetic acid], the “optimum concentration for stimulation of reductase activity” value in data set [4] was 2.5 mM. For the same compound, the “effect on reductase activity (in words)” value in data set [4] (pH 7.5) was “some stimulation”. For the compound palmitoyl-ACP [16:0 Acyl-ACP], in data set [1], the “activity as substrate of the reductase (in words)” value is “high”. `O=C(O)c1cc[c]([Hg][OH])cc1` [para-hydroxymercuribenzoate]: the “inhibitory effect on reductase activity (in words)” value in data set [4] is listed as “some inhibitory effect”. `C[C@H](CCC(=O)NCCC[N+](C)(C)CCCS(=O)(=O)[O-])[C@H]1CC[C@H]2[C@@H]3[C@H](O)C[C@@H]4C[C@H](O)CC[C@]4(C)[C@H]3C[C@H](O)[C@]12C` [CHAPS, 3-[(3-cholamidopropyl)-dimethyl-ammonio]-1-propanesulfonate]: the “inhibition of reductase activity by detergent (in words)” value against jojoba acyl reductase (at concentrations above the CMC) was “strong inhibition”. For the same compound, the “reversibility of detergent inhibition (in words)” value on jojoba acyl reductase (enzyme exposed on ice, then returned to a concentration at or below the CMC) is given as “complete recovery of reductase activity”. Consider `O[C@H](CS)[C@H](O)CS` (racemic) [Dithiothreitol], for which the “effect on reductase activity (in words)” value in data set [4] (other effectors, pH 7.5) was “stimulatory”. For the compound `CC[C@H](C)C(=O)O[C@H]1C[C@@H](C)C=C2C=C[C@H](C)[C@H](CC[C@@H]3C[C@@H](O)CC(=O)O3)[C@H]21` [Mevinolin], in data set [4] (only had an effect at relatively high concentrations), the “concentration at which an effect on jojoba acyl-CoA reductase activity was seen” value is 100 µM. With `[Cl-].[Cl-].[Mg+2]` [MgCl2], the “salt effect on reductase activity (in words)” value in data set [4] (setting [6]) is reported as “stimulate reductase activity”. As for `CC(C)(COP(=O)(O)OP(=O)(O)OC[C@H]1O[C@@H](n2cnc3c(N)ncnc32)[C@H](O)[C@@H]1OP(=O)(O)O)[C@@H](O)C(=O)NCCC(=O)NCCS` [CoA, CoenzymeA], the “effect on reductase activity (in words)” value in data set [4] (setting [7]) is “significant inhibition”. Consider `[Cl-].[K+]` [KCl], for which the “salt effect on reductase activity (in words)” value in data set [4] (setting [6]) was “stimulate reductase activity”. With stearoyl-ACP, in data set [5], the “activity as substrate of the reductase (in words)” value is “activity as a substrate”.

For the compound `O=S(=O)([O-])[O-].[Na+].[Na+]` [Na2 SO4], in data set [4] (setting [6]), the “salt effect on reductase activity (in words)” value is on record as “stimulate reductase activity”. For the compound `CCCCCCCC/C=C\CCCCCCCCCC(=O)SCCNC(=O)CCNC(=O)[C@H](O)C(C)(C)COP(=O)(O)OP(=O)(O)OC[C@H]1O[C@@H](n2cnc3c(N)ncnc32)[C@H](O)[C@@H]1OP(=O)(O)O` [20:1 Acyl-CoA], the “Reductase Activity, Acyl-CoA (10 μM)” value in data set [3] stood at 1.0 pmol/min/µL. In the case of `C/C=C/C/C=C/CCC(=O)[C@H]1O[C@H]1C(N)=O` [Cerulinen], the “inhibitory effect on reductase activity (in words)” value in data set [4] is “no strong inhibitory effect”. As for `NC(=O)C1=CN([C@@H]2O[C@H](COP(=O)(O)OP(=O)(O)OC[C@H]3O[C@@H](n4cnc5c(N)ncnc54)[C@H](O)[C@@H]3O)[C@@H](O)[C@H]2O)C=CC1` [NADH], the “cofactor-dependent reductase activity relative to the NADPH-dependent activity” value in data set [4] (cofactor in place of NADPH, not measurable above background) is listed as less than 2%. Also, in data set [4] (setting [7]), the “effect on reductase activity (in words)” value is “marginal effects”. On to `[Cl-].[Li+]` [LiCl], for which the “salt effect on reductase activity (in words)” value in data set [4] (setting [6]) is “stimulate reductase activity”. On to `N#CS` [KSCN], for which the “salt effect on reductase activity (in words)” value in data set [4] is “no stimulation or marginal stimulation”. Take `[Cl-].[Na+]` [NaCl]: the “stimulation of reductase activity” value in data set [4] (microsomes, 500000 µM) is “Up to 15 fold”. On to `CCCCCCCC/C=C\CCCCCCCCCCCC(=O)SCCNC(=O)CCNC(=O)[C@H](O)C(C)(C)COP(=O)(O)OP(=O)(O)OC[C@H]1O[C@@H](n2cnc3c(N)ncnc32)[C@H](O)[C@@H]1OP(=O)(O)O` [22:1 Acyl-CoA], for which, in data set [3], the “Reductase Activity, Acyl-CoA (10 μM)” value is 1.0 pmol/min/µL. For `NC(=O)c1ccc[n+]([C@@H]2O[C@H](COP(=O)([O-])OP(=O)(O)OC[C@H]3O[C@@H](n4cnc5c(N)ncnc54)[C@H](O)[C@@H]3O)[C@@H](O)[C@H]2O)c1` [NAD+], the “effect on reductase activity (in words)” value in data set [4] (setting [7]) is “marginal effects”. As to `CCN1C(=O)C=CC1=O` [N-ethylmaleimide], the “inhibitory effect on reductase activity (in words)” value in data set [4] is on record as “strongly inhibit”.

Source of the values: US5411879A, “Fatty acyl reductases” (Calgene Inc., priority 1993, dated 1995).
